# From patent publication US9932350B2, “Inhibitors of IRAK4 activity” (MERCK SHARP & DOHME CORP., priority 2014, dated 2018)
# Molecular target: GST tagged IRAK4 (Homo sapiens (Human), UniProt Q9NWZ3)
# Assay: IRAK4 Kinase Assay (IMAP fluorescence polarization)
# Assay type: biochemical
# Settings: 0.5 nM GST tagged IRAK4, 100 μM ATP, 30 minutes at 25° C.
# Description: The kinase activity of IRAK4 is determined by its ability to catalyze the phosphorylation of a fluorescent polypeptide substrate. The extent of phosphorylation is measured using the IMAP technology (Molecular Devices) where the phosphorylated fluorescent substrate binds to the large M(III)-based nanoparticles which reduces the rotational speed of the substrate and thus increases its fluorescent polarization (FP).
# 20 μL reaction mixture contains 10 mM TriHCl, pH 7.2, 0.5 nM GST tagged IRAK4 (SignalChem), 100 nM fluorescent peptide substrate (RP7030, Molecular Devices), 100 μM ATP, 1 mM DDT, 1 mM MgCl2, and 0.01% Tween 20. The reaction is initiated by the addition of ATP. After incubation for 30 minutes at 25° C., 60 μL of Progressive IMAP Reagent (Molecular Devices) is added to stop the reaction. Change in RP7030's FP is determined by a FP reader (Analyst HT, LJL BioSystems).
# GST tagged IRAK4, sequence (Q9NWZ3 whole entry): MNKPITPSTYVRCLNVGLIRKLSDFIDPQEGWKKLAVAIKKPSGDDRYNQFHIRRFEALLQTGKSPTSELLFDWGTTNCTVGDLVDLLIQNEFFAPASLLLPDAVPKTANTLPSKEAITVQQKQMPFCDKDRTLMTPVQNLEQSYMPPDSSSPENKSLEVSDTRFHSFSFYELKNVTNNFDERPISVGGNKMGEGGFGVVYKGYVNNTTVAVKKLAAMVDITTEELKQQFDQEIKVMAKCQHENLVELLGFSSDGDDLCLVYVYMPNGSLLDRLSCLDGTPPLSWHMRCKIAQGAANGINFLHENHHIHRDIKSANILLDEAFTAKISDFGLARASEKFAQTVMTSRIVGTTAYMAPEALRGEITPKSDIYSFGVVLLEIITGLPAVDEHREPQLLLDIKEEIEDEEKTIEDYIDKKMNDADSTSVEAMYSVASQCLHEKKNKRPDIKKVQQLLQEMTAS
row,Compound,IC50 [nM]
1,"N#Cc1ccc2ncnc(N[C@H]3CC[C@H](N4CCC4)CC3)c2c1 [Example 3-1, 4-{[Trans-4-(azetidin-1-yl)cyclohexyl]amino}quinazoline-6-carbonitrile]",34
2,"N#Cc1ccc2ncnc(N[C@H]3CC[C@@H](N4CCC4)CC3)c2c1 [Example 3-6, 4-{[cis-4-(azetidin-1-yl)cyclohexyl]amino} quinazoline-6-carbonitrile]",768
3,"CC1OCCN([C@H]2CC[C@H](Nc3ncnc4ccc(C#N)cc34)CC2)C1C (stereo partly drawn) [Example 3-7, 4-{[trans-4-(2,3-dimethylmorpholin-4-yl)cyclohexyl]amino} quinazoline-6-carbonitrile]",96
4,"CC1OCCN([C@H]2CC[C@@H](Nc3ncnc4ccc(C#N)cc34)CC2)C1C (stereo partly drawn) [Example 3-8, 4-{[cis-4-(2,3-dimethylmorpholin-4-yl)cyclohexyl]amino} quinazoline-6-carbonitrile]",2550
5,"C[C@@H]1CN([C@H]2CC[C@H](Nc3ncnc4ccc(C#N)cc34)CC2)C[C@H](C)O1 [Example 3-9, 4-({trans-4-[(2R,6S)-2,6-dimethylmorpholin-4-yl]cyclohexyl}amino) quinazoline-6-carbonitrile]",5
6,"CS(=O)(=O)C1CCN([C@H]2CC[C@H](Nc3ncnc4ccc(C#N)cc34)CC2)CC1 [Example 3-10, 4-({trans-4-[4-(methylsulfonyl)piperidin-1-yl]cyclohexyl}amino) quinazoline-6-carbonitrile]",11
7,"CS(=O)(=O)C1CCN([C@H]2CC[C@H](Nc3ncnc4ccc(C#N)cc34)CC2)C1 (stereo partly drawn) [Example 3-13, 4-({trans-4-[3-(methylsulfonyl)pyrrolidin-1-yl]cyclohexyl}amino) quinazoline-6-carbonitrile]",14
8,"N#Cc1ccc2ncnc(N[C@H]3CC[C@H](N4C[C@@H]5C[C@H]4CO5)CC3)c2c1 [Example 3-18, 4-({trans-4-[(1S,4S)-2-oxa-5-azabicyclo[2.2.1]hept-5-yl]cyclohexyl}amino) quinazoline-6-carbonitrile]",114
9,"N#Cc1ccc2ncnc(N[C@H]3CC[C@H](N4CCC(F)CC4)CC3)c2c1 [Example 3-19, 4-{[trans-4-(4-fluoropiperidin-1-yl)cyclohexyl]amino} quinazoline-6-carbonitrile]",3
10,"CS(=O)(=O)N1CCN([C@H]2CC[C@H](Nc3ncnc4ccc(C#N)cc34)CC2)CC1 [Example 3-20, 4-({trans-4-[4-(methylsulfonyl)piperazin-1-yl]cyclohexyl}amino) quinazoline-6-carbonitrile]",8
11,"N#Cc1ccc2ncnc(N[C@H]3CC[C@H](NCC(F)(F)F)CC3)c2c1 [Example 3-21, 4-({trans-4-[(2,2,2-trifluoroethyl)amino]cyclo-hexyl}amino)quinazoline-6-carbonitrile]",512
12,"COCCN[C@H]1CC[C@H](Nc2ncnc3ccc(C#N)cc23)CC1 [Example 3-22, 4-({trans-4-[(2-methoxyethyl)amino]cyclohexyl}amino)quinazoline-6-carbonitrile]",16
13,"N#Cc1ccc2ncnc(N[C@H]3CC[C@H](NC4CC4)CC3)c2c1 [Example 3-23, 4-{[trans-4-(cyclopropylamino)cyclo-hexyl]amino}quinazoline-6-carbonitrile]",26
14,"N#Cc1ccc2ncnc(N[C@H]3CC[C@H](N4CCOC5CCCC54)CC3)c2c1 (stereo partly drawn) [Example 3-24, 4-({trans-4-[(4aS,7aS or 4aR,7aR)-hexahydrocyclopenta[b] [1,4]oxazin-4(4aH)-yl]cyclohexyl}amino) quinazoline-6-carbonitrile]",11
15,"N#Cc1ccc2ncnc(N[C@H]3CC[C@H](N4CCCC5COCCC54)CC3)c2c1 (stereo partly drawn) [Example 3-25, 4-{[trans-4-(hexahydro-2H-pyrano[4,3-b]pyridin-1(5H)-yl)cyclohexyl]amino} quinazoline-6-carbonitrile]",53
16,"N#Cc1ccc2ncnc(N[C@H]3CC[C@H](N4CCOC5(CC5)C4)CC3)c2c1 [Example 3-26, 4-{[trans-4-(4-oxa-7-azaspiro[2.5]oct-7-yl)cyclohexyl]amino} quinazoline-6-carbonitrile]",46
17,"N#Cc1ccc2ncnc(N[C@H]3CC[C@H](N4CCOC(CF)C4)CC3)c2c1 (stereo partly drawn) [Example 3-27, 4-({trans-4-[2-(fluoromethyl)morpholin-4-yl]cyclohexyl}amino) quinazoline-6-carbonitrile]",8
18,"C[C@H]1COCCN1[C@H]1CC[C@H](Nc2ncnc3ccc(C#N)cc23)CC1 [Example 3-28, 4-({trans-4-[(3S)-3-methylmorpholin-4-yl]cyclohexyl}amino) quinazolin-6-carbonitrile]",47
19,"COC1CN([C@H]2CC[C@H](Nc3ncnc4ccc(C#N)cc34)CC2)C1 [Example 3-29, 4-{[trans-4-(3-methoxyazetidin-1-yl)cyclohexyl]amino} quinazoline-6-carbonitrile]",11

row,Compound,IC50 [nM]
1,"CN1CCN([C@H]2CC[C@H](Nc3ncnc4ccc(C#N)cc34)CC2)CC1 [Example 3-30, 4-{[trans-4-(4-methylpiperazin-1-yl)cyclohexyl]amino} quinazoline-6-carbonitrile]",17
2,"C[C@@H]1COCCN1[C@H]1CC[C@H](Nc2ncnc3ccc(C#N)cc23)CC1 [Example 3-31, 4-({trans-4-[(3R)-3-methylmorpholin-4-yl]cyclohexyl}amino) quinazoline-6-carbonitrile]",10
3,"CN(C1CC1)[C@H]1CC[C@H](Nc2ncnc3ccc(C#N)cc23)CC1 [Example 3-32, 4-({trans-4-[cyclopropyl(methyl)amino]cyclohexyl}amino) quinazoline-6-carbonitrile]",15
4,"N#Cc1ccc2ncnc(N[C@H]3CC[C@H](N4CCCC(F)(F)C4)CC3)c2c1 [Example 3-33, 4-{[trans-4-(3,3-difluoropiperidin-1-yl)cyclohexyl]amino} quinazoline-6-carbonitrile]",132
5,"N#Cc1ccc2ncnc(N[C@H]3CC[C@H](N4CC[C@H](O)C4)CC3)c2c1 [Example 3-34, 4-({trans-4-[(3S)-3-hydroxypyrrolidin-1-yl]cyclohexyl}amino) quinazoline-6-carbonitrile]",33
6,"N#Cc1ccc2ncnc(N[C@H]3CC[C@H](N4CCCC(F)C4)CC3)c2c1 (stereo partly drawn) [Example 3-35, 4-{[trans-4-(3-fluoropiperidin-1-yl)cyclohexyl]amino} quinazoline-6-carbonitrile]",38
7,"CC1(O)CCN([C@H]2CC[C@H](Nc3ncnc4ccc(C#N)cc34)CC2)C1 (stereo partly drawn) [Example 3-36, 4-{[trans-4-(3-hydroxy-3-methylpyrrolidin-1-yl)cyclohexyl]amino} quinazoline-6-carbonitrile]",25
8,"N#Cc1ccc2ncnc(N[C@H]3CC[C@H](N4CC(N5CCOCC5)C4)CC3)c2c1 [Example 3-37, 4-({trans-4-[3-(morpholin-4-yl)azetidin-1-yl]cyclohexyl}amino) quinazoline-6-carbonitrile]",41
9,"N#Cc1ccc2ncnc(N[C@H]3CC[C@H](N4CC[C@@H](O)C4)CC3)c2c1 [Example 3-38, 4-({trans-4-[(3R)-3-hydroxypyrrolidin-1-yl]cyclohexyl}amino) quinazoline-6-carbonitrile]",15
10,"N#Cc1ccc2ncnc(N[C@H]3CC[C@H](N4CCC5OCCC54)CC3)c2c1 (stereo partly drawn) [Example 3-39, 4-{[trans-4-(hexahydro-4H-furo[3,2-b]pyrrol-4-yl)cyclohexyl]amino} quinazoline-6-carbonitrile]",174
11,"CO[C@@H]1CCN([C@H]2CC[C@H](Nc3ncnc4ccc(C#N)cc34)CC2)C1 [Example 3-40, 4-({trans-4-[(3R)-3-methoxypyrrolidin-1-yl]cyclohexyl}amino) quinazoline-6-carbonitrile]",51
12,"N#Cc1ccc2ncnc(N[C@H]3CC[C@H](N4CCC(CN5CCOCC5)CC4)CC3)c2c1 [Example 3-43, 4-({trans-4-[4-(mopholin-4-ylmethyl)piperidin-1-yl]cyclohexyl}amino) quinazoline-6-carbonitrile]",9
13,"N#Cc1ccc2ncnc(N[C@H]3CC[C@H](N4CCCC4)CC3)c2c1 [Example 3-44, 4-{[trans-4-(pyrrolidin-1-yl)cyclohexyl]amino} quinazoline-6-carbonitrile]",15
14,"CC(C)(C)OC(=O)N1CCN([C@H]2CC[C@H](Nc3ncnc4ccc(C#N)cc34)CC2)CC1 [Example 3-45, tert-butyl 4-{trans-4-[(6-cyanoquinazolin-4-yl)amino]cyclohexyl} piperazine-1-carboxylate]",6
15,"N#Cc1ccc2ncnc(N[C@H]3CC[C@H](N4CCCC(CN5CCOCC5)C4)CC3)c2c1 (stereo partly drawn) [Example 3-46, 4-({trans-4-[3-(morpholin-4-ylmethyl)piperidin-1-yl]cyclohexyl}amino) quinazoline-6-carbonitrile]",7
16,"N#Cc1ccc2ncnc(N[C@H]3CC[C@H](N4C5CCC4COC5)CC3)c2c1 [Example 3-47, 4-{[trans-4-(3-oxa-8-azabicyclo[3.2.1]oct-8-yl)cyclohexyl]amino} quinazoline-6-carbonitrile]",872
17,"N#Cc1ccc2ncnc(N[C@H]3CC[C@H](N4C[C@H]5CC[C@@H](C4)O5)CC3)c2c1 [Example 3-50, 4-({trans-4-[(1R,5S)-8-oxa-3-azabicylco[3.2.1]oct-3-yl]cyclohexyl}amino) quinazoline-6-carbonitrile]",579
18,"CC1(C)CN([C@H]2CC[C@H](Nc3ncnc4ccc(C#N)cc34)CC2)CCO1 [Example 3-51, 4-{[trans-4-(2,2-dimethylmorpholin-4-yl)cyclohexyl]amino} quinazoline-6-carbonitrile]",89
